Measurements published in US10251838B2, “Stereospecific lipids for locoregional therapy with long-term circulating stimuli-sensitive nanocarrier systems” (THERMOSOME GmbH, priority 2013, dated 2019).

Assays:
[1] = Phase transition temperatures (TM) of phospholipids; type: physicochemical; conditions: for TM (phase transition temperature): phosphatidylcholine/phosphatidyldiglycerol/phosphatidyltriglycerol/phosphatidyltetraglycerol with the given fatty acid pattern; for main (phase) transition temperature: pure lipid
Protocol: By selecting a phosphatidylcholine having a suitable main transition temperature, the stimuli-sensitive nanocarrier system, in particular the thermosensitive liposome, can be customised. Table 1 gives main transition temperatures (TM) of phosphatidylcholines whose main transition temperatures are in the range of from 0 to 80° C.
The fatty acid chains and their distribution over positions 1 and 2 of the glycerol molecule dominate the physical properties of the phospholipids. The phase transition temperature is independent of whether the phospholipid is the phosphatidylcholine, the phosphatidyldiglycerol, the phosphatidyltriglycerol or the phosphatidyltetraglycerol.

[2] = tissue depth of 2000-3000 μm; cited from earlier work
[3] = Stability and circulation of liposomes in serum / bloodstream (animal experiments); type: in vivo; conditions: lipid alone in liposomes
Protocol: By using phosphatidyloligoglycerols, it has been possible to prepare thermosensitive liposomes having a prolonged blood circulation time (WO 2002/064116 and WO 2004/026282). […] The majority of the liposomes remain in the blood circulation over a period of 2 hours and are therefore available for heat-controlled release of the active ingredient. Owing to the rapid release-kinetics of these liposomes with heat-induced release of the active ingredient within a few seconds, preferably <15 seconds, more preferably <10 seconds, a previously enclosed active ingredient can be released immediately by targeted heating of the liposomes to temperatures >39° C., preferably 40-42° C.
The main transition temperature for (1,2-dipalmitoyl)-phosphatidylcholine is approximately 41° C. The purely physical requirements for clinical use in liposomes can accordingly be fulfilled by this phosphatidylcholine. However, the serum stability in the bloodstream of humans and animals that is required for clinical applications is lacking. (1,2-Dipalmitoyl)phosphatidylcholine alone is therefore not sufficient to achieve the therapeutic aims. […]
Enclosed active ingredients are only released when the temperature is increased locally to about 42° C. […]

CCCCCCCCCCCCCCCCCC(=O)OCC(COC(=O)CCCCCCCCCCCCCCCCC)OP(=O)([O-])OCC[N+](C)(C)C [1,3-distearoyl-, 1,3-distearoylglycero-2-phosphocholine]
TM (phase transition temperature) [1]: 53 °C

CCCCCCCCCCCCCCCCCCCCCC(=O)OCC(COP(=O)([O-])OCC[N+](C)(C)C)OC(=O)CCCCCCCCCCCCCCCCCCCCC (stereo not drawn) [1,2-dibehenoyl-, 1,2-dibehenoylglycero-3-phosphocholine]
TM (phase transition temperature) [1]: 75 °C

CCCCCCCCCCCCCCCCCC(=O)OCC(COC(=O)CCCCCCCCCCCCC)OP(=O)([O-])OCC[N+](C)(C)C (stereo not drawn) [1-stearoyl-3-myristoyl-, 1-stearoyl-3-myristoylglycero-2-phosphocholine]
TM (phase transition temperature) [1]: 46 °C

CCCCCCCCCCCCCC(=O)OCC(COC(=O)CCCCCCCCCCCCC)OP(=O)([O-])OCC[N+](C)(C)C [1,3-dimyristoyl-, 1,3-dimyristoylglycero-2-phosphocholine]
TM (phase transition temperature) [1]: 19 °C

CCCCCCCC/C=C\CCCCCCCC(=O)O[C@H](COC(=O)CCCCCCCCCCCCCCCCC)COP(=O)([O-])OCC[N+](C)(C)C [1-stearoyl-2-oleoyl-, 1-stearoyl-2-oleoyl-3-phosphocholine]
TM (phase transition temperature) [1]: 7 °C

CCCCCCCCCCCCCCCCCC(=O)OC(COC(=O)CCCCCCCCCCCCCCC)COP(=O)([O-])OCC[N+](C)(C)C (stereo not drawn) [1-palmitoyl-2-stearoyl-, 1-palmitoyl-2-stearoylglycero-3-phosphocholine]
TM (phase transition temperature) [1]: 52 °C

CCCCCCCCCCCCCCCCCC(=O)OCC(COP(=O)([O-])OCC[N+](C)(C)C)OC(=O)CCCCCCCCCCCCCCC (stereo not drawn) [1-stearoyl-2-palmitoyl-, 1-stearoyl-2-palmitoylglycero-3-phosphocholine]
TM (phase transition temperature) [1]: 48 °C

CCCCCCCCCCCCCCCCCC(=O)OCC(COP(=O)([O-])OCC[N+](C)(C)C)OC(=O)CCCCCCCCCCCCC (stereo not drawn) [1-stearoyl-2-myristoyl-, 1-stearoyl-2-myristoylglycero-3-phosphocholine]
TM (phase transition temperature) [1]: 33 °C

CCCCCCCC/C=C\CCCCCCCC(=O)OC(COC(=O)CCCCCCCCCCCCCCCCCCCCC)COP(=O)([O-])OCC[N+](C)(C)C (stereo not drawn) [1-behenoyl-2-oleoyl-, 1-behenoyl-2-oleoylglycero-3-phosphocholine]
TM (phase transition temperature) [1]: 14 °C

CCCCCCCCCCCCCCCCCC(=O)OC(COC(=O)CCCCCCCCCCCCC)COP(=O)([O-])OCC[N+](C)(C)C (stereo not drawn) [1-myristoyl-2-stearoyl-, 1-myristoyl-2-stearoylglycero-3-phosphocholine]
TM (phase transition temperature) [1]: 42 °C

CCCCCCCCCCCCCCCCCCCCCCCC(=O)OCC(COP(=O)([O-])OCC[N+](C)(C)C)OC(=O)CCCCCCCCCCCCCCCCCCCCCCC (stereo not drawn) [1,2-dilignoceroyl-, 1,2-dilignoceroylglycero-3-phosphocholine]
TM (phase transition temperature) [1]: 80 °C

CCCCCCCCCCCCCCCC(=O)OCC(COC(=O)CCCCCCCCCCCCCCC)OP(=O)([O-])OCC[N+](C)(C)C [1,3-dipalmitoyl-, 1,3-palmitoylglycero-2-phosphocholine]
TM (phase transition temperature) [1]: 39 °C

CCCCCCCCCCCCCC(=O)OCC(COP(=O)([O-])OCC[N+](C)(C)C)OC(=O)CCCCCCCCCCCCC (stereo not drawn) [1,2-dimyristoyl-, 1,2-dimyristoylglycero-3-phosphocholine]
TM (phase transition temperature) [1]: 23 °C | main (phase) transition temperature [1]: 23 °C

CO[C@@]12[C@H](COC(N)=O)C3=C(C(=O)C(C)=C(N)C3=O)N1C[C@@H]1N[C@@H]12 [mitomycin C]
dogs in which no further mitomycin C was detectable [2]: 18/24

CCCCCCCCCCCCCCCC(=O)OCC(COP(=O)([O-])OCC[N+](C)(C)C)OC(=O)CCCCCCCCCCCCC (stereo not drawn) [1-palmitoyl-2-myristoyl-, 1-palmitoyl-2-myristoylglycero-3-phosphocholine]
TM (phase transition temperature) [1]: 27 °C

CCCCCCCCCCCCCCCC(=O)OCC(COP(=O)([O-])OCC[N+](C)(C)C)OC(=O)CCCCCCCCCCCCCCC (stereo not drawn) [1,2-dipalmitoyl-, 1,2-dipalmitoylglycero-3-phosphocholine]
TM (phase transition temperature) [1]: 41 °C | main (phase) transition temperature ([1]; listed as (1,2-dipalmitoyl)-phosphatidylcholine): approximately 41 °C | main (phase) transition temperature ([1]; listed as dipalmitoyl-phosphatidylcholine): 41 °C | serum stability in the bloodstream of humans and animals [3]: lacking

CCCCCCCCCCCCCCCC(=O)OCC(COP(=O)([O-])OCC[N+](C)(C)C)OC(=O)CCCCCCCCCCC (stereo not drawn) [1-palmitoyl-2-lauroyl-, 1-palmitoyl-2-lauroylglycero-3-phosphocholine]
TM (phase transition temperature) [1]: 11 °C

CCCCCCCC/C=C\CCCCCCCC(=O)OC(COC(=O)CCCCCCCCCCCCCCC)COP(=O)([O-])OCC[N+](C)(C)C (stereo not drawn) [1-palmitoyl-2-oleoyl-, 1-palmitoyl-2-oleoylglycero-3-phosphocholine]
TM (phase transition temperature) [1]: 5 °C

CCCCCCCCCCCCCCCCCC(=O)OCC(COP(=O)([O-])OCC[N+](C)(C)C)OC(=O)CCCCCCCCCCC (stereo not drawn) [1-stearoyl-2-lauroyl-, 1-stearoyl-2-lauroylglycero-3-phosphocholine]
TM (phase transition temperature) [1]: 17 °C

CCCCCCCCCCCCCCCC(=O)OC(COC(=O)CCCCCCCCCCCCC)COP(=O)([O-])OCC[N+](C)(C)C (stereo not drawn) [1-myristoyl-2-palmitoyl-, 1-myristoyl-2-palmitoylglycero-3-phosphocholine]
TM (phase transition temperature) [1]: 37 °C

CCCCCCCCCCCCCCCCCC(=O)OCC(COP(=O)([O-])OCC[N+](C)(C)C)OC(=O)CCCCCCCCCCCCCCCCC (stereo not drawn) [1,2-distearoyl-, 1,2-distearoylglycero-3-phosphocholine]
TM (phase transition temperature) [1]: 56 °C | main (phase) transition temperature [1]: 56 °C

CCCCCCCCCCCCCCCCCCCC(=O)OC[C@H](COP(=O)([O-])OCC[N+](C)(C)C)OC(=O)CCCCCCCCCCCCCCCCCCC [1,2-diarachinoyl-, 1,2-diarachinoylglycero-3-phosphocholine]
TM (phase transition temperature) [1]: 66 °C
